Measured values published in article PMC8834506, “Optimization of Thymidine Kinase-Based Safety Switch for Neural Cell Therapy” (Cells, 2022).
Where two headings read alike, the source gives them in different places.

Tests used:
[1] = format: in vivo, NOD/SCID mice; conditions: 40 mg/kg/day i.p.; weighed daily during treatment
Protocol: Given the encouraging in vitro results, we next investigated whether this newly developed safety switch system (SR39h and different nucleoside analogs) could prevent tumor formation in vivo. For this purpose, 20,000 undifferentiated Ki67-SR39h-expressing hESC were transplanted into the striatum of NOD/SCID mice. […] A group of control mice received only a NaCl solution. […] Human cytoplasmic marker (HCM) staining confirmed the human (i.e., hESC-derived) origin of these tumors. Tumors cells were predominantly Ki67 positive with a rosette organization as frequently found in tumors of the central nervous system.
Supplementary Figure S3: Mice weight
Mice were weighed daily during guanosine analogs treatment to identify differences in weight gain/loss between treated groups. No differences were observed between treatment groups.
Supplementary Figure S4: in vivo validation of suicide gene. Coronal section of NOD/SCID mice 47 days after injection of hESC expressing the SR39h thymidine kinase variant. Mice were treated for 2x5 days with the respective nucleoside analogs (see Methods). Upper lane: ACV; middle lane: PCV; lower lane: GCV. Sections were colored with cresyl violet and dark purple staining reflects a high density of nuclei. Scale bar 1000 µm. […]

[2] = test system: hESC (HS420) expressing Ki67-SR39h D116E; experiment: ATP-based cell survival assay, GCV-induced cell death; conditions: Homo sapiens
Protocol: Our first generation of suicide gene was engineered with the wild type thymidine kinase (wt-TK). To improve the suicide gene efficacy, we investigated different TK variants; wt-TK, 30-GMK, SR39, SR39h, and SR39h D116E variants. These sequences were chosen based on the analysis of the literature investigating HSV1-TK variants, as well as a gain of function mutation in the CMV UL-97 kinase. The efficacy of each variants was determined as percentage of cell survival following prodrug treatment compared to non-treated hESC. For this purpose, we used the ATP-based assay, which measures cellular ATP content and thereby provides a reliable estimate of the number of healthy cells. The 50% effective concentration (EC50) was defined as the drug concentration required to reduce the percentage of cell survival by 50%. […] In order to optimize our system, we first replaced the wt-TK by the 30-GMK variant, which is a fusion between the 30 TK variant and guanylate kinase (GMK). Note that GMK is mediating the second phosphorylation step of antiviral nucleoside analogs. […] Microbial codon usage might not yield optimal results in human cells. We therefore adapted the SR39 sequence to a typical human codon usage. […]
Figure 1 EC50 of ganciclovir (GCV) in cell expressing different thymidine kinase (TK) variants. […] Number of surviving cells was monitored using bioluminescent ATP-based assay. […]

With `Nc1nc(O)c2ncn(COC(CO)CO)c2n1` [GCV, ganciclovir] the “Differences in weight among groups” value [1] was “no significant differences in weight”, the EC50 ([2]; 96 h, read-out: GCV EC50 in M) was 0.56 nM and the EC50 ([2]; 96 h GCV exposure, SR39h D116E variant, read-out: EC50 of GCV (cell survival)) was 0.6 nM.
